{"source": "paper PMC6080416", "about": "“Spectroscopic Studies as a Toolbox for Biophysical and Chemical Characterization of Lipid-Based Nanotherapeutics” (Frontiers in Chemistry, 2018)"}
{"assay": "Fluorescence quenching of n-AS probes in MLVs of EPC (drug location)", "assay_type": "physicochemical", "settings": "MLVs of EPC labeled with n-AS probes", "experimental": "Three independent experiments were carried out.\nThis type of fluorescence quenching can be described by the Stern-Volmer linear plots (Equation 5 and Figures 7A,B) where the fluorescence emission intensities of the labeled nanocarrier in the absence (I0) and in the presence (I) of the quencher (drugs) are plotted against the quencher concentration [Q] and it is possible to obtain linear relations in which the intercept is zero and the slope corresponds to Stern-Volmer constant, KSVapp (Lakowicz, [2014]):\nThe Stern-Volmer plots of the fluorescence quenching provoked by increasing concentrations of Indomethacin are not linear and present positive deviations (Figure 7C). Positive deviations from the Stern-Volmer equation are often observed when the extent of quenching is large and these deviations from linearity indicate that the quenching mechanism cannot be explained solely by a collisional mechanism (Lakowicz, [2014]). There is an apparent static quenching component caused by the close proximity of deactivating drug and fluorophore at excitation moment. The quenching is still collisional, but the existence of fluorophores and quenchers located very close to each other causes an immediate fluorescence deactivation and therefore the fluorophore and the drug appear to form non-fluorescent complexes (Lakowicz, [2014]). This type of fluorescence quenching is usually interpreted in terms of a “sphere of action” (Equation 7) within which the possibility of deactivation is equal to unity (Lakowicz, [2014]).\n(7) I0/I=(1+KSVapp[Q])e^[Q]Vapp\nBy representing graphically I0/(Ie^[Q]Vapp) as a function of [Q], linear relations were obtained in which the slope corresponds to KSVapp (Figure 7D). Thus, Indomethacin quenching efficiency followed approximately the same order as that obtained for Acemetacin: 2-AS < 6-AS < 9-AS < 12-AS."}
{"smiles": "COc1ccc2c(c1)c(CC(=O)OCC(=O)O)c(C)n2C(=O)c1ccc(Cl)cc1", "note": "[Acemetacin]", "Drug location within the lipid nanocarrier inferred from Kqapp": "can reach an inner location at the lipid nanocarrier"}
{"smiles": "COc1ccc2c(c1)c(CC(=O)O)c(C)n2C(=O)c1ccc(Cl)cc1", "note": "[Indomethacin]", "Drug location within the lipid nanocarrier inferred from Kqapp": "able to reach a more inner location within the lipid nanocarrier"}
{"smiles": "Cc1ccc(C(=O)c2ccc(CC(=O)O)n2C)cc1", "note": "[Tolmetin]", "Drug location within the lipid nanocarrier inferred from Kqapp": "preferential location of Tolmetin at the polar headgroup region of the lipid nanocarriers"}
